Measurements taken from ChEMBL document CHEMBL4004849, “Tetrazolylmethyl quinolines: Design, docking studies, synthesis, anticancer and antifungal analyses” (2017).
Values after ≈ are worked out from the molar mass of the structure shown.

Columns and labels:
Assay type in all cases: functional
Candida albicans [1] = assay: Antifungal activity against Candida albicans at 100 ug/ml by disc diffusion method; settings: read-out: IZ
Candida albicans [2] = assay: Antifungal activity against Candida albicans after 24 hrs by serial dilution method
Aspergillus fumigatus [3] = assay: Antifungal activity against Aspergillus fumigatus after 24 hrs by serial dilution method
Aspergillus fumigatus [4] = assay: Antifungal activity against Aspergillus fumigatus at 100 ug/ml by disc diffusion method; settings: read-out: IZ

| Compound | zone of inhibition at 100 µg/mL (Candida albicans [1]) [mm] | MIC (Candida albicans [2]) [µg/mL] | MIC (Aspergillus fumigatus [3]) [µg/mL] | zone of inhibition at 100 µg/mL (Aspergillus fumigatus [4]) [mm] |
| --- | --- | --- | --- | --- |
| Cc1ccc2nc(Cl)c(Cn3nnc(Cc4ccccc4)n3)cc2c1 | 12 | 25 (≈ 71.5 µM) | 25 (≈ 71.5 µM) | 12 |
| OC(Cn1cncn1)(Cn1cncn1)c1ccc(F)cc1F [FLUCONAZOLE] | 24 | 30 (≈ 98 µM) | 30 (≈ 98 µM) | 26 |
| Clc1nc2ccc(Br)cc2cc1Cn1nnc(CSc2ccccc2)n1 | 18 | 25 (≈ 56 µM) | 5 (≈ 11.2 µM) | 15 |
| COc1ccc2nc(Cl)c(Cn3nnc(CSc4ccccc4)n3)cc2c1 | 16 | 25 (≈ 62.8 µM) | 10 (≈ 25.1 µM) | 20 |
